Measured values published in patent US10253081B2, “Glucagon analogues” (Zealand Pharma A/S, priority 2012, dated 2019).
Where two headings read alike, the source gives them in different places. *1 amine or outer side, *2 acyl side, *3 side chain or, on linkers, in order; H or OH if unused. Where a SMILES comes first, the peptide text is derived from it. Side-chain parts run from the residue outwards. [ ]: non-standard residue; d: D form. The star is where a group is joined. γGlu = O=C(O)[C@H](CCC(=O)[*:2])N[*:1]; Palmitoyl = CCCCCCCCCCCCCCCC(=O)*; Aib = CC(C)(N)C(=O)O

Columns and labels:
[1] = Pharmacokinetic parameters after subcutaneous and intravenous administration to mice; type: in vivo; settings: male, mouse, plasma, 20 nmol/kg, C57Bl/6J mice; for half-life: read-out: Terminal half life (converted); for MRT: read-out: Mean Residence Time
Procedure, shortened: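 Non-compartmental PK from LC-MS/MS plasma levels, sampled 0.5–24 h after subcutaneous and 10 min–24 h after intravenous dosing. Dose 20 nmol/kg (4 μM in pH 7.4 phosphate-buffered PBS) into male C57Bl/6J mice, 8–11 weeks old.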

[2] = target: T1, endogenous glucagon receptor (Rattus norvegicus, UniProt P30082); experiment: Agonistic activity on endogenous glucagon receptor (glycogen synthesis rate in primary rat hepatocytes); type: cell-based; settings: inhibition of glycogen synthesis rate, 3 hours, read-out: EC50 GLP-1R Rat hepat.
T1 construct: Agonistic activity of the test compounds on endogenous glucagon receptor; endogenous in cells; host or cells: primary rat hepatocytes
Procedure, shortened: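 Primary rat hepatocytes (40,000 cells/well, cultured 24 h) incubated 3 h with compound in KRBH buffer with 0.1% BSA, 22.5 mM glucose and D-[U14C]glucose. 14C incorporated into precipitated glycogen counted, background-subtracted and expressed as % of 0.1% DMSO vehicle (100% CTL). pEC50 from cpm versus log concentration; agonism lowers glycogen synthesis.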

[3] = Sub-chronic effects on adiposity/body weight in diet-induced obese mice; type: in vivo, C57BL/6J mice; settings: DIO mice, 5 nmol/kg s.c. twice daily for 31 days
Protocol: Male C57BL/6J mice (Taconic A/S, Denmark) at an age of 5 weeks were maintained on a 12:12 hour light-dark cycle on a high-fat diet (60% of total energy from fat, D12492, Research Diet Inc.) for 20 weeks. All mice (housed 2 per cage) were then mock-treated for a week to acclimatize the animals to handling and injections. Subsequently, the mice were stratified according to body fat mass (measured by magnetic resonance technique) and body weight into 9 groups (n=9-12). Animals were thereafter treated twice daily with subcutaneous injections (5 ml/kg) of vehicle (25 mM phosphate buffer, pH 7.4) or test substances (5 nmol/kg per administration, in equivalent amount of vehicle) for a total of 31 days. The daily injections were given at the start and at the end of the light phase. Body weight, food and water intake were determined daily throughout the study. The data are presented in Table 6 as mean body weight change±S.E.M. S.E.M. is defined as standard error of the mean and was calculated using the formula: S.E.M.=SD/square root (n), where SD is the standard deviation and n the number of observations (in this case animals/group).
Statistical analyses were performed using Graph Pad Prism version 5. The measured parameters were compared using one-way ANOVA followed by Dunnett's multiple comparison test. Differences were considered statistically significant at p<0.05.

T1 sequence (P30082 27-485): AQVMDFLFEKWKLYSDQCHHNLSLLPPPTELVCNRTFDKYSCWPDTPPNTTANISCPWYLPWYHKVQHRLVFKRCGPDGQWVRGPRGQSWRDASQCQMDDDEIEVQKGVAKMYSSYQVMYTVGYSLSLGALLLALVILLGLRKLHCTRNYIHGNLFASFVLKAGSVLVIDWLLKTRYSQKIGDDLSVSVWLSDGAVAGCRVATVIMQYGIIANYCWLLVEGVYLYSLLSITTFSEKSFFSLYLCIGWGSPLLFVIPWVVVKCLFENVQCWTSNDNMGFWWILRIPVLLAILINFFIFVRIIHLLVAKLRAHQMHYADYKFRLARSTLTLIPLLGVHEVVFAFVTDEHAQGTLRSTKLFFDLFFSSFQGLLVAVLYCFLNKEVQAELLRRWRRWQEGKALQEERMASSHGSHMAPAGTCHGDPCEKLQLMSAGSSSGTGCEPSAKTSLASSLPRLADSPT

| clearance ([1]; IV) [mL/min/kg] | half-life ([1]; IV) [h] | Tmax ([1]; SC) [h] | bioavailability ([1]; SC) [%] | MRT ([1]; SC) [h] | half-life ([1]; SC) [h] | EC50 [2] [nM] | Structure (SMILES) | Mean body weight change [3] [%] |
| --- | --- | --- | --- | --- | --- | --- | --- | --- |
| 0.22 | 5.5 | 4 | 75 | 12.8 | 8.6 | 1.92 | CCCCCCCCCCCCCCCC(=O)N[C@@H](CCC(=O)NCCCC[C@H](NC(=O)[C@H](CO)NC(=O)[C@H](CC(=O)O)NC(=O)[C@H](CC(C)C)NC(=O)[C@H](Cc1ccc(O)cc1)NC(=O)[C@H](CCCCN)NC(=O)[C@H](CO)NC(=O)[C@H](Cc1ccc(O)cc1)NC(=O)[C@H](CC(=O)O)NC(=O)[C@H](CO)NC(=O)[C@@H](NC(=O)[C@H](Cc1ccccc1)NC(=O)[C@@H](NC(=O)CNC(=O)[C@H](CCC(N)=O)NC(=O)[C@H](CO)NC(=O)[C@@H](N)Cc1c[nH]cn1)[C@@H](C)O)[C@@H](C)O)C(=O)N[C@@H](C)C(=O)N[C@@H](C)C(=O)N[C@@H](CCC(=O)O)C(=O)N[C@@H](CC(=O)O)C(=O)N[C@@H](Cc1ccccc1)C(=O)N[C@H](C(=O)N[C@@H](CCC(=O)O)C(=O)N[C@@H](Cc1c[nH]c2ccccc12)C(=O)N[C@@H](CC(C)C)C(=O)N[C@@H](CC(C)C)C(=O)N[C@@H](CCCNC(=N)N)C(=O)N[C@@H](C)C(N)=O)C(C)C)C(=O)O [Compound 7, H-HSQGTFTSDYSKYLDS-K(Hexadecanoyl-isoGlu)-AAEDFVEWLLRA-NH2] (H-HSQGTFTSDYSKYLDSK([γGlu-Palmitoyl])AAEDFVEWLLRA-NH2) | −8.7 |
| 0.225 | 6.2 | 4 | 64 | 12.2 | 6.1 | 0.1 | CCCCCCCCCCCCCCCC(=O)N[C@@H](CCC(=O)NCCCC[C@H](NC(=O)[C@H](CCC(=O)O)NC(=O)[C@H](CC(=O)O)NC(=O)[C@H](CC(C)C)NC(=O)[C@H](Cc1ccc(O)cc1)NC(=O)[C@H](CCCCN)NC(=O)[C@H](CO)NC(=O)[C@H](Cc1ccc(O)cc1)NC(=O)[C@H](CC(=O)O)NC(=O)[C@H](CO)NC(=O)[C@@H](NC(=O)[C@H](Cc1ccccc1)NC(=O)[C@@H](NC(=O)CNC(=O)[C@H](CCC(N)=O)NC(=O)C(C)(C)NC(=O)[C@@H](N)Cc1c[nH]cn1)[C@@H](C)O)[C@@H](C)O)C(=O)N[C@@H](CCCNC(=N)N)C(=O)N[C@@H](C)C(=O)N[C@@H](CCCCN)C(=O)N[C@@H](CC(=O)O)C(=O)N[C@@H](Cc1ccccc1)C(=O)N[C@H](C(=O)N[C@@H](CCC(=O)O)C(=O)N[C@@H](Cc1c[nH]c2ccccc12)C(=O)N[C@@H](CC(C)C)C(=O)N[C@@H](CC(C)C)C(=O)N[C@@H](CO)C(=O)N[C@@H](C)C(=O)O)[C@@H](C)CC)C(=O)O [Compound 14, H-H-Aib-QGTFTSDYSKYLDE-K(Hexadecanoyl-isoGlu)-RAKDFIEWLLSA-OH] (H-H[Aib]QGTFTSDYSKYLDEK([γGlu-Palmitoyl])RAKDFIEWLLSA-OH) | −9.5 |
| 0.128 | 6 | 6 | 97 | 17.4 | 10.5 | 0.17 | CCCCCCCCCCCCCCCC(=O)N[C@@H](CCC(=O)NCCCC[C@H](NC(=O)[C@H](CCC(=O)O)NC(=O)[C@H](CC(=O)O)NC(=O)[C@H](CC(C)C)NC(=O)[C@H](Cc1ccc(O)cc1)NC(=O)[C@H](CCCCN)NC(=O)[C@H](CO)NC(=O)[C@H](Cc1ccc(O)cc1)NC(=O)[C@H](CC(=O)O)NC(=O)[C@H](CO)NC(=O)[C@@H](NC(=O)[C@H](Cc1ccccc1)NC(=O)[C@@H](NC(=O)CNC(=O)[C@H](CCC(N)=O)NC(=O)C(C)(C)NC(=O)[C@@H](N)Cc1c[nH]cn1)[C@@H](C)O)[C@@H](C)O)C(=O)N[C@@H](C)C(=O)N[C@@H](C)C(=O)N[C@@H](CCCCN)C(=O)N[C@@H](CC(=O)O)C(=O)N[C@@H](Cc1ccccc1)C(=O)N[C@H](C(=O)N[C@@H](CCC(=O)O)C(=O)N[C@@H](Cc1c[nH]c2ccccc12)C(=O)N[C@@H](CC(C)C)C(=O)N[C@@H](CCC(=O)O)C(=O)N[C@@H](CO)C(=O)N[C@@H](C)C(N)=O)[C@@H](C)CC)C(=O)O [Compound 15, H-H-Aib-QGTFTSDYSKYLDE-K(Hexadecanoyl-isoGlu)-AAKDFIEWLESA-NH2] | −10.9 |
| 0.312 | 4.8 | 2 | 80 | 7.5 | 5 | 1.85 | CCCCCCCCCCCCCCCC(=O)N[C@@H](CCC(=O)NCCCC[C@H](NC(=O)[C@H](CO)NC(=O)[C@H](CC(=O)O)NC(=O)[C@H](CC(C)C)NC(=O)[C@H](Cc1ccc(O)cc1)NC(=O)[C@H](CCCCN)NC(=O)[C@H](CO)NC(=O)[C@H](Cc1ccc(O)cc1)NC(=O)[C@H](CC(=O)O)NC(=O)[C@H](CO)NC(=O)[C@@H](NC(=O)[C@H](Cc1ccccc1)NC(=O)[C@@H](NC(=O)CNC(=O)[C@H](CCC(N)=O)NC(=O)C(C)(C)NC(=O)[C@@H](N)Cc1c[nH]cn1)[C@@H](C)O)[C@@H](C)O)C(=O)N[C@@H](C)C(=O)N[C@@H](C)C(=O)N[C@@H](CCC(=O)O)C(=O)N[C@@H](CC(=O)O)C(=O)N[C@@H](Cc1ccccc1)C(=O)N[C@H](C(=O)N[C@@H](CCC(=O)O)C(=O)N[C@@H](Cc1c[nH]c2ccccc12)C(=O)N[C@@H](CC(C)C)C(=O)N[C@@H](CCC(=O)O)C(=O)N[C@@H](CO)C(=O)N[C@@H](C)C(N)=O)C(C)C)C(=O)O [Compound 16, H-H-Aib-QGTFTSDYSKYLDS-K(Hexadecanoyl-isoGlu)-AAEDFVEWLESA-NH2] (H-H[Aib]QGTFTSDYSKYLDSK([γGlu-Palmitoyl])AAEDFVEWLESA-NH2) | −12.2 |
